Test results reported in publication PMC10649086 (Antimicrobial Agents and Chemotherapy, 2023).
pEC50, pIC50, pKi: −log10 of the molar value. Where two headings read alike, the source gives them in different places.

Experiments:
SARS-CoV2 WT M^pro = target: T1, SARS-CoV2 WT M^pro (Severe acute respiratory syndrome coronavirus 2, UniProt P0DTC1); assay type: biochemical, SARS-CoV-2
T1 construct: codon-optimized cDNA of SARS-CoV-2 M^pro (QIZ13716.1_ORF1a) was cloned into the pET28a vector; host or cells: E. coli

SARS-CoV-2 [1] = conditions: in vivo; cited from earlier work
CoV-OC43 = assay: organism not typed; assay type: cell-based
SARS-CoV-2 Mu = assay: microbe, parasite or virus in culture; assay type: cell-based
[2] = tested on: SARS-CoV-2 BA.2.12.1 Omicron; assay: microbe, parasite or virus in culture; assay type: cell-based
[3] = tested on: SARS-CoV-2 Wuhan replicon (WT); assay: microbe, parasite or virus in culture; assay type: cell-based
CoV-HKU1 M^pro = target: T2, CoV-HKU1 M^pro (Human coronavirus HKU1, UniProt P0C6X2); assay: biochemical
T2 construct: M^pro proteins from other human CoVs were also cloned, expressed in E. coli and purified by WuXi AppTec; host or cells: E. coli
T2 sequence (P0C6X2 3335-3637 limits assumed): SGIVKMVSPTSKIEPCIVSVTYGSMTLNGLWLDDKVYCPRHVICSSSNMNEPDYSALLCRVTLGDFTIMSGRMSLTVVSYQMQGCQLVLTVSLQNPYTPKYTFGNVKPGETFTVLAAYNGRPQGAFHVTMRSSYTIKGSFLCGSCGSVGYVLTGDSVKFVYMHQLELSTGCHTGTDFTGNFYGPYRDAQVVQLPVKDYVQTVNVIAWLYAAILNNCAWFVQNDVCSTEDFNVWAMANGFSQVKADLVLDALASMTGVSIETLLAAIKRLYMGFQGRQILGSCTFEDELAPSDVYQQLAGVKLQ

SARS-CoV-2 Epsilon = assay: microbe, parasite or virus in culture; assay type: cell-based
caspase-2 = caspase-2 (Homo sapiens, UniProt P42575); assay type: biochemical
caspase-2, sequence (P42575 170-325): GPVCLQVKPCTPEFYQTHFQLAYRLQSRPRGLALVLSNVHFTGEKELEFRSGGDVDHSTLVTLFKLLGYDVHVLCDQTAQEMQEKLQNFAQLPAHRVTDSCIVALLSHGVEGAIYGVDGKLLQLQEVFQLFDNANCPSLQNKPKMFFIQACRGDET
caspase-2, sequence (P42575 348-452): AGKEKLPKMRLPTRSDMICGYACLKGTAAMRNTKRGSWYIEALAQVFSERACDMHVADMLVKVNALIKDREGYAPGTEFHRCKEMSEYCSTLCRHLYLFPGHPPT

cathepsin B = cathepsin B (Homo sapiens, UniProt P07858); assay: biochemical
SARS-CoV-2 AY.20 Delta = assay: microbe, parasite or virus in culture; assay type: cell-based
thrombin = thrombin (Homo sapiens, UniProt P00734); assay type: biochemical
SARS-CoV-2 Delta = assay: microbe, parasite or virus in culture; assay type: cell-based
SARS-CoV-2 WA1 NLuc = assay: microbe, parasite or virus in culture; assay type: cell-based
SARS-CoV-2 Alpha = assay: microbe, parasite or virus in culture; assay type: cell-based
chymotrypsin C = chymotrypsin C (Homo sapiens, UniProt Q99895); assay type: biochemical
chymotrypsin C, sequence (Q99895 30-268): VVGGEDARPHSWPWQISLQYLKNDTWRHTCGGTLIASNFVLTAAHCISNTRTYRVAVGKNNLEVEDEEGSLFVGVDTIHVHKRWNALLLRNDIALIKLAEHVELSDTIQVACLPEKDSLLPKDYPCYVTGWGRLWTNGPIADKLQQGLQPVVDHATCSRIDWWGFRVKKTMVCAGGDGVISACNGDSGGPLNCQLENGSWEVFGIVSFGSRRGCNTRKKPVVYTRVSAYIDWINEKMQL

dipeptidyl peptidase IV = dipeptidyl peptidase IV (Homo sapiens, UniProt P27487); assay type: biochemical
dipeptidyl peptidase IV, sequence (P27487 whole entry): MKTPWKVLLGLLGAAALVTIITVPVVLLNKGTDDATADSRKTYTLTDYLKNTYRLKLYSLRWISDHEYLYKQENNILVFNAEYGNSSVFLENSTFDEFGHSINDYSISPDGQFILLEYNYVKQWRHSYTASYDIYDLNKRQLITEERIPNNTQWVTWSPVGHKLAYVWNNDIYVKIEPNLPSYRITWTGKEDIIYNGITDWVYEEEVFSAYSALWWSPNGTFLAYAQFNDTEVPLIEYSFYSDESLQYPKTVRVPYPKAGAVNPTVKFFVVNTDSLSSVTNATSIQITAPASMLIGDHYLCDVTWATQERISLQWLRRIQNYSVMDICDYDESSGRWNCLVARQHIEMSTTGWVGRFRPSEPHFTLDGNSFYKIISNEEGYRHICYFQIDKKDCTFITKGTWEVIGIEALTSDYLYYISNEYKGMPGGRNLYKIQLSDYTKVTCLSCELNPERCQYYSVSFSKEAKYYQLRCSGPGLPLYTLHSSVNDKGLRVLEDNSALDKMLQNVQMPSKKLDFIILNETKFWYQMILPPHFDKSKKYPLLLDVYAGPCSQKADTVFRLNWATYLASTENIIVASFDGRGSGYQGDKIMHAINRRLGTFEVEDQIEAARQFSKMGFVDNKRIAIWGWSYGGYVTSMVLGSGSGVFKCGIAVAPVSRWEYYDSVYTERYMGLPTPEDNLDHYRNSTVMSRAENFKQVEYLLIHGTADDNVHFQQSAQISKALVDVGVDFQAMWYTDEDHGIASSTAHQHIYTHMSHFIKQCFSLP

SARS-CoV-2 BA.2 Omicron = assay: microbe, parasite or virus in culture; assay type: cell-based
SARS-CoV-2 [4] = conditions: human, in vivo; cited from earlier work
elastase = assay type: biochemical, human
[5] = tested on: SARS-CoV-2 BA.1.1 Omicron; assay: microbe, parasite or virus in culture; assay type: cell-based
cathepsin L = cathepsin L (Homo sapiens, UniProt P07711); assay: biochemical
cathepsin L, sequence (P07711 114-333): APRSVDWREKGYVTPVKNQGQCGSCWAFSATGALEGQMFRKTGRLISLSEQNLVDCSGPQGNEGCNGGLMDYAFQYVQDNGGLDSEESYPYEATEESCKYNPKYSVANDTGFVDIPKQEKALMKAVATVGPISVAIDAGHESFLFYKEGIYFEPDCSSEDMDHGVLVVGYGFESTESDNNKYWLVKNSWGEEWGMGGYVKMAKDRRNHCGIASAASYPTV

calpain1 = calpain1 (Homo sapiens, UniProt P07384); assay type: biochemical
calpain1, sequence (P07384 whole entry): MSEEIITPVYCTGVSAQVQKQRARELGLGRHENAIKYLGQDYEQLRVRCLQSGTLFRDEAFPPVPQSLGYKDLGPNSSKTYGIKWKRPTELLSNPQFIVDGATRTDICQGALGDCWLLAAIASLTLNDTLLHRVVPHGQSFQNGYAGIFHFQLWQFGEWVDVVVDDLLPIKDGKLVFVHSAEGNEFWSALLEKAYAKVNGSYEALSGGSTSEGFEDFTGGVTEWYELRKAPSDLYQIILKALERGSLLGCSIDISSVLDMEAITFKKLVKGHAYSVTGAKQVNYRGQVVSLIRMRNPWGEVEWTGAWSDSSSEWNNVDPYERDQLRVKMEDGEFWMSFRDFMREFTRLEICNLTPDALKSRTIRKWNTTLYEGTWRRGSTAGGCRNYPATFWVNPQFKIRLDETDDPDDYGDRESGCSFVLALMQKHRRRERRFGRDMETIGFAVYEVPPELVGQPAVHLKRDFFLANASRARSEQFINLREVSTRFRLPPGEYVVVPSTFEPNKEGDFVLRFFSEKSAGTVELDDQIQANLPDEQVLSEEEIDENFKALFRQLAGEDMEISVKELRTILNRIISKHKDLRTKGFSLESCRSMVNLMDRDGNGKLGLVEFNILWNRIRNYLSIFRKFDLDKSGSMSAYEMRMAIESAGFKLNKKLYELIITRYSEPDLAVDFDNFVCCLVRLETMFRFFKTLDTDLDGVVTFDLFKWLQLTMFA
calpain1, sequence (P04632 whole entry, further chain): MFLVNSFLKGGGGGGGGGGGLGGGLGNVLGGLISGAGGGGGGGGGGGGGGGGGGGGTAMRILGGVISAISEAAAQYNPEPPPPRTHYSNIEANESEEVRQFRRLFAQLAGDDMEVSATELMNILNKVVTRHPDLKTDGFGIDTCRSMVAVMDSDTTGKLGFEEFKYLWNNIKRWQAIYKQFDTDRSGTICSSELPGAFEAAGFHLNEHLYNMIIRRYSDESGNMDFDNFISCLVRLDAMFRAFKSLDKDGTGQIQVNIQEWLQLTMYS

CoV-OC43 M^pro = target: T3, CoV-OC43 M^pro (Human coronavirus OC43, UniProt P0C6X6); assay: biochemical
T3 construct: M^pro proteins from other human CoVs were also cloned, expressed in E. coli and purified by WuXi AppTec; host or cells: E. coli
T3 sequence (P0C6X6 3247-3549 limits assumed): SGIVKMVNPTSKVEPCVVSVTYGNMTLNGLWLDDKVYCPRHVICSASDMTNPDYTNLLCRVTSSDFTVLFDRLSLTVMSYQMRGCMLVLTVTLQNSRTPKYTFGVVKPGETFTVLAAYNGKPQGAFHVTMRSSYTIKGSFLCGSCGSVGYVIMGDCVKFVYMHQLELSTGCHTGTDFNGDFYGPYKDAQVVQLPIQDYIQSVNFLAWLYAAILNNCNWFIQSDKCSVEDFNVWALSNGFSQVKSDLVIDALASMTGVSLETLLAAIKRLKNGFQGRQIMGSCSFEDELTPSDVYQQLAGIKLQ

cathepsin K = cathepsin K (Homo sapiens, UniProt P43235); assay: biochemical
cathepsin K, sequence (P43235 115-329): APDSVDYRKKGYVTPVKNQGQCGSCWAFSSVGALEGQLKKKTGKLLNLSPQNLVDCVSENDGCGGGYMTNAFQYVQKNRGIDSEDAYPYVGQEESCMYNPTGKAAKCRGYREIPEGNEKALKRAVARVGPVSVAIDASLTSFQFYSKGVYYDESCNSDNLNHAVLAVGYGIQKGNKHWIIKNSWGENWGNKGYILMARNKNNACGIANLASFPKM

CoV-229E = assay: organism not typed; assay type: cell-based
cathepsin S = cathepsin S (Homo sapiens, UniProt P25774); assay: biochemical
cathepsin S, sequence (P25774 115-331): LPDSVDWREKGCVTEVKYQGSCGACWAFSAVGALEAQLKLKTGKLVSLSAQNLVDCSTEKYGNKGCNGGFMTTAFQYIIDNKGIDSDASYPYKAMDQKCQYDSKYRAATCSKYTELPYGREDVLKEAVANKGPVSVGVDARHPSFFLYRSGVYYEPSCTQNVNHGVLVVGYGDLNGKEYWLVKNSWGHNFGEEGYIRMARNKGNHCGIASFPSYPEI

cathepsin D = cathepsin D (Homo sapiens, UniProt P07339); assay type: biochemical
cathepsin D, sequence (P07339 65-412): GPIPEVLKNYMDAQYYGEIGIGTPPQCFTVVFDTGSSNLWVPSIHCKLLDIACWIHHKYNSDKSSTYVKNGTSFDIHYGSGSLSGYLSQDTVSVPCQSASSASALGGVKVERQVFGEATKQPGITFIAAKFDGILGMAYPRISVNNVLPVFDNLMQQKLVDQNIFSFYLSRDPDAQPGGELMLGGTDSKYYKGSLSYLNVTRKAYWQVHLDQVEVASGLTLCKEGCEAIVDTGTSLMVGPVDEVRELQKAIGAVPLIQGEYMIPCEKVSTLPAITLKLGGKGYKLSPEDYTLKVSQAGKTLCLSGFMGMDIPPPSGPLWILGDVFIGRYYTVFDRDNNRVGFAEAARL

SARS-CoV-2 M^pro = target: T4, SARS-CoV-2 M^pro (Severe acute respiratory syndrome coronavirus 2, UniProt P0DTC1); assay type: biochemical
T4 construct: composed of about 300 amino acids embedded in the polyproteins as the nsp5 domain; purchased BPS Biosciences

[6] = tested on: SARS-CoV-2 BA.4.1 Omicron; assay: microbe, parasite or virus in culture; assay type: cell-based
CoV-229E M^pro = target: T5, CoV-229E M^pro (Human coronavirus 229E, UniProt P0C6X1); assay: biochemical
T5 construct: M^pro proteins from other human CoVs were also cloned, expressed in E. coli and purified by WuXi AppTec; host or cells: E. coli
T5 sequence (P0C6X1 2966-3267 limits assumed): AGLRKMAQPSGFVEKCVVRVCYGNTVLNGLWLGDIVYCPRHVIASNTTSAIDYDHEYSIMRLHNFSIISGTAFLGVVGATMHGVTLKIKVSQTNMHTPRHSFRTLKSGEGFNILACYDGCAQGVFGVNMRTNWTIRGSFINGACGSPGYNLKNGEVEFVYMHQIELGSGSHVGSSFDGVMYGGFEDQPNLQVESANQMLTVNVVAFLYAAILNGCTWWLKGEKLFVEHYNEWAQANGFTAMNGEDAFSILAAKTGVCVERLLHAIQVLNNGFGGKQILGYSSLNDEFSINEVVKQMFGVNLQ

CoV-NL63 M^pro = target: T6, CoV-NL63 M^pro (Human coronavirus NL63, UniProt P0C6X5); assay: biochemical
T6 construct: M^pro proteins from other human CoVs were also cloned, expressed in E. coli and purified by WuXi AppTec; host or cells: E. coli
T6 sequence (P0C6X5 2940-3242 limits assumed): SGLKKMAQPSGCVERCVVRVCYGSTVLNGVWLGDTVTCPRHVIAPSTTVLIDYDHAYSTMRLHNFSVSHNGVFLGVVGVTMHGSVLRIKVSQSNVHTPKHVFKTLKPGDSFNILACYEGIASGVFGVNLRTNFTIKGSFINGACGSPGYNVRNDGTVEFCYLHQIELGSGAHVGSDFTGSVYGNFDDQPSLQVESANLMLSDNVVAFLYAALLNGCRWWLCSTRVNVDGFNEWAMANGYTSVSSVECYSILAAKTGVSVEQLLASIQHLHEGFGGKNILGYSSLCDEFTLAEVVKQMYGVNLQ

[7] = tested on: SARS-CoV-2 BA.5.2.1 Omicron; assay: microbe, parasite or virus in culture; assay type: cell-based
caspase 3 = caspase 3 (Homo sapiens, UniProt P42574); assay type: biochemical
caspase 3, sequence (P42574 29-175): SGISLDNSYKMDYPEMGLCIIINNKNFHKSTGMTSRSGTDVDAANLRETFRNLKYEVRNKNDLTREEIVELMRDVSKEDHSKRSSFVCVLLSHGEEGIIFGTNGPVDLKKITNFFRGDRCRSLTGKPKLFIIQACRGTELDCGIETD
caspase 3, sequence (P42574 176-277): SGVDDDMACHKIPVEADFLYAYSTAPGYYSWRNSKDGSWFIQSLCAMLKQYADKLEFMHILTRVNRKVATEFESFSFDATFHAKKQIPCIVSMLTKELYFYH

[8] = Severe acute respiratory syndrome coronavirus 2, read-out: EC50 Mean (SD)
[9] = Severe acute respiratory syndrome coronavirus 2, read-out: EC90 Mean (SD)

With GC376 the pIC50 (SARS-CoV2 WT M^pro) was 7.70.
In the case of CC(C)C[C@@H](C(=O)N1C[C@]2(C[C@H]1C#N)C(=O)Nc1ccccc12)N(C)C(=O)c1cc2c(F)cc(F)c(F)c2[nH]1 [EDP-235], the “effect on viral RNA decline or infectious viral load in nasal samples” value (SARS-CoV-2 [1]) is given as “failed to demonstrate the effect on viral RNA decline or infectious viral load in nasal samples”.
In the case of N#C[C@H](C[C@@H]1CCCNC1=O)NC(=O)[C@H](CC1CC1)NC(=O)c1cc2cccc(Cl)c2[nH]1 [pomotrelvir], the pEC50 (CoV-OC43; Huh-7, read-out: Mean EC50 (SD)) was 6.42, the EC90 (CoV-OC43; Huh-7, read-out: Mean EC90 (SD)) was 490 nM and the pEC50 (SARS-CoV-2 Mu; [8]) was 7.14. For the same molecule, the EC90 (SARS-CoV-2 Mu; [9]) was 195 nM, the pEC50 [2, 8] was 7.22 and the EC90 [2, 9] was 171 nM. The pEC50 ([3]; Severe acute respiratory syndrome coronavirus 2, Huh-7, read-out: EC50 Mean (SD)) was 7.51, the EC90 ([3]; Severe acute respiratory syndrome coronavirus 2, Huh-7, read-out: EC90 Mean (SD)) was 170 nM and the pEC50 ([3]; read-out: Mean EC50 (SD)) was 7.57. For the same molecule, the EC90 ([3]; read-out: Mean EC90 (SD)) was 150 nM, the pIC50 (CoV-HKU1 M^pro) was 7.21 and the pEC50 (SARS-CoV-2 Epsilon; [8]) was 6.71. For the same molecule, the EC90 (SARS-CoV-2 Epsilon; [9]) was 777 nM, the inhibitory activity (caspase-2) was “no inhibitory activity was observed” and the pKi (cathepsin B) was 5.90. The pEC50 (SARS-CoV-2 AY.20 Delta; [8]) was 6.43, the EC90 (SARS-CoV-2 AY.20 Delta; [9]) was 672 nM and the inhibitory activity (thrombin) was “no inhibitory activity was observed”. For the same molecule, the pEC50 (SARS-CoV-2 Delta; [8]) was 6.60, the EC90 (SARS-CoV-2 Delta; [9]) was 425 nM and the EC90 (SARS-CoV-2 WA1 NLuc; Severe acute respiratory syndrome coronavirus 2, A549-ACE2, read-out: Mean EC90 (SD)) was 114 nM. For the same molecule, the pEC50 (SARS-CoV-2 WA1 NLuc; read-out: Mean EC50 (SD)) was 7.64, the pEC50 (SARS-CoV-2 Alpha; [8]) was 7.02 and the EC90 (SARS-CoV-2 Alpha; [9]) was 144 nM. For the same molecule, the inhibitory activity (chymotrypsin C) was “no inhibitory activity was observed”, the inhibitory activity (dipeptidyl peptidase IV) was “no inhibitory activity was observed” and the EC90 (SARS-CoV-2 BA.2 Omicron; [9]) was 668 nM. The pEC50 (SARS-CoV-2 BA.2 Omicron; read-out: EC50 Mean (SD)) was 6.86, the “primary endpoint: proportion of patients below the limit of detection by infectious virus assay on day 3 of treatment” value (SARS-CoV-2 [4]) was “did not meet the primary endpoint” and the inhibitory activity (elastase) was “no inhibitory activity was observed”. For the same molecule, the pEC50 [5, 8] was 7.03, the EC90 [5, 9] was 213 nM and the pKi (cathepsin L) was 5.13. For the same molecule, the inhibitory activity (calpain1) was “no inhibitory activity was observed”, the pIC50 (CoV-OC43 M^pro) was 6.80 and the pKi (cathepsin K) was 6.54. For the same molecule, the EC90 (CoV-229E; MRC5, read-out: Mean EC90 (SD)) was 410 nM, the pEC50 (CoV-229E; read-out: Mean EC50 (SD)) was 6.74 and the pKi (cathepsin S) was 6.35. For the same molecule, the inhibitory activity (cathepsin D) was “no inhibitory activity was observed”, the alpha factor (SARS-CoV-2 M^pro) was 10.4 and the pEC50 [6, 8] was 6.61. The EC90 [6, 9] was 1120 nM, the pIC50 (CoV-229E M^pro) was 6.85 and the pIC50 (CoV-NL63 M^pro) was 6.69. The pEC50 [7, 8] was 6.59, the EC90 [7, 9] was 1270 nM and the inhibitory activity (caspase 3) was “no inhibitory activity was observed”.
